The values below are quoted from earlier work in patent US11293039B2, “Method for producing organic acid salts from fermentation broth” (METABOLIC EXPLORER, priority 2017, dated 2022).

For this data set the following is noted: dilute aqueous solution, 25 °C.
Turning to Alloxanic acid, the pKa was 6.64.

As to `O=C(O)C(O)CO` (stereo not shown) [Glyceric acid], the pKa is 3.52.

As to `O=C(O)[C@@H]1CCCCN1` [l-Pipecolic acid], the pKa is recorded as 2.28.

With `CC(CC(=O)O)CC(=O)O` [3-Methylglutaric acid], the pKa was 4.24.

As to `N#CCC(=O)O` [Cyanoacetic acid], the pKa was 2.45.

In the case of `O=C(O)CCCl` [3-Chloropropanoic acid], the pKa is on record as 3.98.

`O=C(O)CCCCCCC(=O)O` [Octanedioic acid]: the pKa is 4.52.

Turning to `CC(Cl)C(=O)O` (stereo not shown) [2-Chloropropanoic acid], the pKa is 2.83.

For the compound `N#CCCCC(=O)O` [4-Cyanobutanoic acid], the pKa is reported as 2.42.

Regarding `CC(C(=O)O)C(=O)O` [Methymalonic acid], the pKa is 3.07.
